{
  "source": "patent US6616919B2",
  "about": "“Dibenzoylmethane sunscreen compositions containing photostabilizing amounts of tri-substituted butane compounds” (Societe l'Oreal S.A., priority 2001, dated 2003)",
  "format_in_all_cases": "physicochemical",
  "key": {"[1]": {"test": "Photostability of butylmethoxydibenzoylmethane in Support 1 formulations, xenon lamp exposure, UV spectrometry (Example 1)", "conditions": "Support 1, 2% butylmethoxydibenzoylmethane, X = 0% by weight (no 1,1,1-tris(2-methyl-4-hydroxy-5-tert-butylphenyl)butane); ratio of exposed to unexposed OD", "description": "The photostability of the dibenzoylmethane compound was evaluated on several formulations in which the amount of 1,1,1-tris(2-methyl-4-hydroxy-5-tert-butylphenyl)butane (X) was varied. The support common to these formulations was as follows: [table] For each formula, 3 test samples and 3 control samples were prepared. 2 mg/cm^2 of formula were deposited by spatula onto polymethyl methacrylate plates. […], to a Sun Test Heraus machine equipped with a xenon lamp and having as UV-A illumination: 3.02×10^−3 W/cm^2, and as UV-B illumination: 2.1×10^−4 W/cm^2, and the control plates were maintained for the same time and at the same temperature (38-40° C.) in darkness. After this time, the screening agents were extracted by immersing each plate in 50 g of ethanol and subjecting them to ultrasound for 15 minutes to ensure good extraction. The solutions obtained were analyzed by UV spectrometry. For each test formula, the amount of residual butylmethoxydibenzoylmethane after exposure is given as the ratio of its optical density (OD) in the exposed sample to its unexposed optical density (OD). […]"}, "[2]": {"test": "Photostability of butylmethoxydibenzoylmethane in Support 2 formulations containing octyltriazone, xenon lamp exposure, UV spectrometry (Example 2)", "conditions": "Support 2, 0.5% butylmethoxydibenzoylmethane + 1.5% Uvinul T150, X = 0% by weight (no stabilizer)", "description": "(§1) The photostability of octyltriazone in the presence of butylmethoxydibenzoylmethane was examined on several formulations in which the amount of 1,1,1-tris(2-methyl-4-hydroxy-5-tert-butylphenyl)butane (X) was varied. The support common to these formulations was as follows: [table] For each formula, 3 test samples and 3 control samples were prepared. 2 mg/cm^2 of formula were deposited by spatula onto polymethyl methacrylate plates. […], to a Sun Test Heraus machine equipped with a xenon lamp and having as UV-A illumination: 3.02×10^−3 W/cm^2, and as UV-B illumination: 2.1×10^−4 W/cm^2, and the control plates were maintained for the same time and at the same temperature (38-40° C.) in darkness. After this time, the screening agents were extracted by immersing each plate in 50 g of ethanol and subjecting them to ultrasound for 15 minutes to ensure good extraction. The solutions obtained were analyzed by UV spectrometry. For each test formula, the amount of residual butylmethoxydibenzoylmethane and the residual amount of octyltriazone after exposure is given as the ratio of each respective optical density (OD) in the exposed sample to the unexposed optical density (OD) corresponding to each filter. The machine was set at the maximum absorption corresponding to each filter: Butylmethoxydibenzoylmethane: λmax=358 nm"}, "[3]": {"test": "Photostability of octyltriazone in the presence of butylmethoxydibenzoylmethane in Support 2 formulations, xenon lamp exposure, UV spectrometry (Example 2)", "conditions": "Support 2, 0.5% butylmethoxydibenzoylmethane + 1.5% Uvinul T150, X = 0% by weight (no stabilizer)", "description": "as §1, with “Octyltriazone: λmax=312” for “Butylmethoxydibenzoylmethane: λmax=358”"}},
  "data": [
    {"smiles": "COc1ccc(C(=O)CC(=O)c2ccc(C(C)(C)C)cc2)cc1", "note": "[butylmethoxydibenzoylmethane, 4-(tert-butyl)-4′-methoxydibenzoylmethane]", "values": [
      {"measurement": "Residual OD at 358 nm after 1 hour of UVA irradiation", "setting": "[1]", "value": "11 ± 1", "unit": "%"},
      {"measurement": "Residual OD of the dibenzoylmethane at 358 nm after 1 hour of UVA irradiation", "setting": "[2]", "value": "32 ± 4", "unit": "%"}
    ]},
    {"smiles": "CCCCC(CC)COC(=O)c1ccc(Nc2nc(Nc3ccc(C(=O)OCC(CC)CCCC)cc3)nc(Nc3ccc(C(=O)OCC(CC)CCCC)cc3)n2)cc1", "note": "(stereo not drawn) [octyltriazone, 2,4,6-tris[p-(2′-ethylhexyl-1′-oxycarbonyl)anilino]-1,3,5-triazine]", "values": [
      {"measurement": "Residual OD of the triazine at 312 nm after 1 hour of UVA irradiation", "setting": "[3]", "value": "87 ± 13", "unit": "%"}
    ]}
  ]
}
